# According to publication PMC13010326, “Fragment-Based Development of NSP14 Exonuclease Inhibitors Confounded by Batch-to-Batch Variability” (ACS Chemical Biology, 2026):
# Like-named read-outs stand apart in the source and are kept apart here.
# How the values were obtained:
# NSP14 ExoN [1] = biological target: T1, NSP14 ExoN (Severe acute respiratory syndrome coronavirus 2, UniProt P0DTD1); experiment: biochemical
# NSP14 = NSP14 (Severe acute respiratory syndrome coronavirus 2, UniProt P0DTD1); experiment: NSP14 DSF thermal shift assay; type: binding, SARS-CoV-2; conditions: 1 mM compound
# Experimental: In technical triplicate, NSP14 (0.15 mg mL^–1) was prepared in 20 mM HEPES pH 7.5, 200 mM NaCl, 1 mM TCEP, and 2 mM MgCl2 and mixed with 1 mM compound or 2% DMSO. Samples were rested for 10 min and then mixed with SYPRO Orange (3× concentration, Invitrogen No. S6650). Raw melting curves (25–99 °C, 0.05 °C C/s, 20 μL volume) were collected on a QuantStudio 3 (Applied Biosystems) and each replicate well was individually normalized from 0 to 100 prior to averaging.
# substrate dsRNA = experiment: Thiazole orange dsRNA intercalation (competition) counter-screen; type: binding; conditions: final 0.5% DMSO
# Experimental: RNase T1 inhibition assay and thiazole orange RNA intercalation counter-screening assays were conducted essentially as previously reported. The TR-FRET ExoN activity assay dsRNA substrate and Assay Buffer were used for the intercalation assay and mixed with compounds in a final 0.5% DMSO.
# NSP14 ExoN [2] = biological target: T1, NSP14 ExoN; parameters: method as in not given; conditions: small biochemical screens; promiscuous compounds; ref not given; cited from earlier work
# [3] = original (first) compound batches, read-out: pIC50, inhibition of NSP14 ExoN in biochemical activity assay (converted)
# [4] = resynthesized, more stringently purified second batch
# [5] = biochemically active (first) batch
smiles,measurement,setting,value
"Cc1cc(N2CCNCC2)nc(C)n1 [Compound 1, reference compound]",IC50,NSP14 ExoN [1]; [3],398 µM
"Cc1csc(CNC(=O)c2cc[nH]n2)n1 [Compound 2, reference compound]",IC50,NSP14 ExoN [1]; [3],> 501 µM
CC(C)c1csc(CNC(=O)c2cc[nH]n2)n1 [Compound 3],IC50,NSP14 ExoN [1]; [3],2.51 µM
same,Activity of second batches against NSP14 ExoN,NSP14 ExoN [1]; [4],inactive
same,NSP14 destabilization by differential scanning fluorimetry (DSF),NSP14; [5],evidence of NSP14 destabilization
same,NSP14 destabilization by differential scanning fluorimetry (DSF),NSP14; biochemically inactive second batch,did not
C#Cc1nc(CNC(=O)c2cc[nH]n2)cs1 [Compound 4],IC50,"NSP14 ExoN [1]; original (first) batch, n = 5, read-out: IC50, inhibition of NSP14 ExoN in biochemical activity assay (as printed in text for 4) (converted)",158 µM
C=Cc1csc(CNC(=O)c2cc[nH]n2)n1 [Compound 5],IC50,NSP14 ExoN [1]; [3],251 µM
O=C(NCc1nc(C2CC2)cs1)c1cc[nH]n1 [Compound 6],IC50,NSP14 ExoN [1]; [3],50.1 µM
same,Activity of second batches against NSP14 ExoN,NSP14 ExoN [1]; [4],inactive
"O=C(NCc1nc(C2CC2)cs1)c1cc(CNCC2CC2)[nH]n1 [Compound 12, 5-(((Cyclopropylmethyl)amino)methyl)-N-((4-cyclopropylthiazol-2-yl)methyl)-1H-pyrazole-3-carboxamide]",Binding to substrate dsRNA by thiazole orange competition assay,substrate dsRNA,neither bound to substrate dsRNA
same,Activity of second batches against NSP14 ExoN,NSP14 ExoN [1],inactive
same,NSP14 destabilization by differential scanning fluorimetry (DSF),NSP14; [5],evidence of NSP14 destabilization
CC(=O)NCc1cc(C(=O)NCc2nc(C3CC3)cs2)n[nH]1 [Compound 13],Binding to substrate dsRNA by thiazole orange competition assay,substrate dsRNA,neither bound to substrate dsRNA
same,Activity of second batches against NSP14 ExoN,NSP14 ExoN [1],inactive
same,NSP14 destabilization by differential scanning fluorimetry (DSF),NSP14; [5],evidence of NSP14 destabilization
O=C(NCc1nc(C2CC2)cs1)c1n[nH]c2ncccc12 [Compound 14],IC50,NSP14 ExoN [1]; [3],158 µM
CC(=O)NCc1cc(C(=O)NCc2nc(C(C)C)cs2)n[nH]1 [Compound 15],IC50,NSP14 ExoN [1]; [3],> 501 µM
CC(C)c1csc(CNC(=O)c2cc(CNCC3CC3)[nH]n2)n1 [Compound 16],IC50,NSP14 ExoN [1]; [3],> 501 µM
O=C(O)C1=CC(=C(c2ccc(O)c(C(=O)O)c2)c2ccc(O)c(C(=O)O)c2)C=CC1=O [aurintricarboxylic acid],Inhibition of NSP14 ExoN (in words),NSP14 ExoN [2],can inhibit NSP14 ExoN
O=c1c2ccccc2[se]n1-c1ccccc1 [ebselen],Inhibition of NSP14 ExoN (in words),NSP14 ExoN [2],can inhibit NSP14 ExoN
O=C1C=C2C(=CCOC2O)O1 (centres unmarked) [patulin],Inhibition of NSP14 ExoN (in words),NSP14 ExoN [2],can inhibit NSP14 ExoN
CC(C)=CCOc1ccc(/C=C/C(=O)c2ccc(OCC=C(C)C)cc2OCC(=O)O)cc1 [sofalcone],Inhibition of NSP14 ExoN (in words),NSP14 ExoN [2],can inhibit NSP14 ExoN
